Values after ≈ are worked out from the molar mass of the structure shown.

From patent US10000527B2, “11-substituted bile acid derivatives, process for the preparation thereof and use of these compounds as medicaments” (priority 2013, dated 2018) come the findings set out here.

For data set [1], the system named is THP-1 (Human acute monocytic leukemia cell line). As to the kind of experiment: Anti-cancer screening, THP-1 cell proliferation. In kind it is cell-based. The settings on record: for IC50: concentration required to inhibit 50% of the cell proliferation; for IC90: concentration required to inhibit 90% of the cell proliferation, read-out: MIC.
Data set [2] has as its system HeLa (Human Cervix epithelioid carcinoma cell line). As to the kind of experiment: Anti-cancer screening, HeLa cell proliferation. The settings on record: for IC50: concentration required to inhibit 50% of the cell proliferation; for IC90: concentration required to inhibit 90% of the cell proliferation, read-out: MIC. It counts as cell-based.
Data set [3] concerns Panc-1 (Human pancreas carcinoma cell line). As to the kind of experiment: Anti-cancer screening, Panc-1 cell proliferation. In kind it is cell-based. To be noted: for IC50: concentration required to inhibit 50% of the cell proliferation; for IC90: concentration required to inhibit 90% of the cell proliferation, read-out: MIC.
For data set [4], the system named is A549 (Human lung adenocarcinoma epithelial cell line). The data set is described as follows: Anti-cancer screening, A549 cell proliferation. In kind it is cell-based. To be noted: for IC50: concentration required to inhibit 50% of the cell proliferation; for IC90: concentration required to inhibit 90% of the cell proliferation, read-out: MIC.
The subject of data set [5] is M. Tuberculosis H37Ra (DORMANT). As to the kind of experiment: Anti TB in vitro, dormant. The settings on record: Mycobacterium tuberculosis, In Vitro, H37Ra DORMANT; for IC50: read-out: IC 50; for MIC: read-out: MIC. It counts as cell-based, Mycobacterium tuberculosis H37Ra.
Data set [6] has as its system M. Tuberculosis H37Ra (ACTIVE). As to the kind of experiment: Anti TB in vitro, active. It counts as cell-based, Mycobacterium tuberculosis H37Ra. The settings on record: Mycobacterium tuberculosis, In Vitro, H37Ra ACTIVE; for IC50: read-out: IC 50; for MIC: read-out: MIC.
The test system of data set [7] is M. Tuberculosis. The data set is described as follows: Anti TB ex vivo infection model, dormant. It counts as cell-based. To be noted: Mycobacterium tuberculosis.
Data set [8] has as its system M. Tuberculosis. The data set is described as follows: Anti TB ex vivo infection model, active. It counts as cell-based. To be noted: Mycobacterium tuberculosis.

One may read the MIC as the smallest concentration in the dilution series that meets the test's criterion for growth inhibition. A word on the melting point: it is the temperature, or range, at which the solid turns liquid. As for `COC(=O)CC[C@@H](C)C1CCC2C3C([C@H](n4nnc5ccccc54)C(=O)[C@@]21C)[C@@]1(C)CC[C@@H](OC(C)=O)C[C@H]1C[C@H]3OC(C)=O` (stereo partly drawn) [Compound 8, (3R,5S,7R,10S,11S,13R)-11-(1H-benzo[d][1,2,3]triazol-1-yl)-17-((R)-5-methoxy-5-oxopentan-2-yl)-10,13-dimethyl-12-oxohexadecahydro-1H-cyclopenta[a]phenanthrene-3,7-diyl diacetate], the melting point is 106 to 109 °C. In [1], the IC50 was 29.9 µg/mL and the IC90 was more than 100 µg/mL. In data set [2], the IC50 worked out at 20.3 µg/mL and the IC90 is more than 100 µg/mL. In data set [3], the IC50 is 50 µg/mL and the IC90 is more than 100 µg/mL. In data set [4], the IC50 turned out to be 20 µg/mL and the IC90 is more than 100 µg/mL. In data set [5], the IC50 was 1.27 µg/mL and the minimum inhibitory concentration (MIC) stood at 7.15 µg/mL. For the same compound, in data set [6], the IC50 worked out at 1.08 µg/mL and the MIC is 9.79 µg/mL. In [7], this compound yielded an IC50 of 1.65 µg/mL and a minimal inhibitory concentration (MIC) of 8.16 µg/mL. Moreover, in data set [8], the IC50 worked out at 1.11 µg/mL and the MIC was 8.6 µg/mL.
Regarding `COC(=O)CC[C@@H](C)C1CCC2C3C([C@H](NC(=O)C4CCCN4C(=O)OC(C)(C)C)C(=O)[C@@]21C)[C@@]1(C)CC[C@@H](OC(C)=O)C[C@H]1C[C@H]3OC(C)=O` (stereo partly drawn) [Compound 9, (3R,5S,7R,10S,11S,13R)-11-(1-(tert-butoxycarbonyl)pyrrolidine-2-carboxamido)-17-((R)-5-methoxy-5-oxopentan-2-yl)-10,13-dimethyl-12-oxohexadecahydro-1H-cyclopenta[a]phenanthrene-3,7-diyldiacetate], the melting point was in the range of 114 to 118 °C. For the same compound, in data set [1], the IC50 was found to be 46 µg/mL (≈ 64.1 µM) and the IC90 is more than 100 µg/mL. Moreover, in data set [2], the IC50 came out at 18.6 µg/mL (≈ 25.9 µM) and the IC90 is more than 100 µg/mL. Also, in data set [3], the IC50 came out at 15 µg/mL (≈ 20.9 µM) and the IC90 was more than 100 µg/mL. In data set [4], the IC50 came out at 52 µg/mL (≈ 72.5 µM) and the IC90 was more than 100 µg/mL. In data set [5], the IC50 worked out at 2.02 µg/mL (≈ 2.82 µM) and the MIC was 8.91 µg/mL (≈ 12.4 µM). Further, in data set [6], the IC50 turned out to be 0.92 µg/mL (≈ 1.28 µM) and the MIC is 9.41 µg/mL (≈ 13.1 µM). Further, in data set [7], the IC50 came to 3.42 µg/mL (≈ 4.77 µM) and the MIC was found to be 26.3 µg/mL (≈ 36.7 µM). Besides, in data set [8], the IC50 was 4.16 µg/mL (≈ 5.8 µM) and the minimum inhibitory concentration (MIC) was 26.8 µg/mL (≈ 37.4 µM).
